Measured values as given in paper PMC11009625, “Antibiotic class with potent in vivo activity targeting lipopolysaccharide synthesis in Gram-negative bacteria” (Proceedings of the National Academy of Sciences of the …, 2024).
≈ marks a conversion by molar mass, not a printed value. Like-named read-outs stand apart in the source and are kept apart here.

Assays:
[1] = Thermodynamic solubility; format: physicochemical; conditions: 37 °C, aqueous buffer, thermodynamic from solid; 100 mM KPO4-buffer, pH 7.4
Protocol: Thermodynamic solubility was assessed by dissolving 2 to 3 mg of test compound to equilibrium in 100 mM KPO4-buffer, pH 7.4. The metabolic stability assay was performed in the presence of human and mouse liver microsomes by measurement of test compounds disappearance over time (60 min). The plasma protein binding assay, including stability estimation, was performed using the RED devices (Thermo Fisher Scientific) in the presence of human and mouse plasma. All samples from the in vitro ADME studies were quantified by liquid chromatography-triple quadrupole mass spectrometry (LC–MS/MS). The assays were performed as previously described ([36]) and the details are available in SI Appendix. Cytotoxicity was assessed by incubation of test compounds in the presence of HepG2 cells for 72 h as previously described ([37]). […]
The plate is then sealed, centrifuged and the supernatant is analysed by liquid
chromatography coupled to triple quadrupole mass spectrometry (LC-MS/MS). […]
Thermodynamic solubility. Thermodynamic solubility assay utilized solid form of a test
compound. Solid test compound (~2-3 mg) was weighed in a glass HPLC vial and 100 mM KPO4-
buffer, pH 7.4 was added to give a theoretical max concentration if everything is dissolved of ~5-
6 mg/ml. The vial was incubated at 900 rpm, 37 °C in a rotational shaker for 24h. After the
incubation an aliquot (200 µl) was transferred to a glass insert and centrifuged at 10 000xg, 37 °C
for 20 min to separate any solid material from the solution. The supernatant was transferred to
a new HPLC vial and analysed by liquid chromatography coupled to triple quadrupole mass
Liquid chromatography coupled to triple quadrupole mass spectrometry (LC-MS/MS). The test
compounds were optimized on a Waters Acquity UPLC XEVO TQ-S micro system (Waters Corp.)
operating in multiple reaction monitoring (MRM) mode with positive or negative electrospray
ionization. Compounds were optimized by using the QuanOptimize software (Waters Corp.).
For chromatographic separation, a C18 BEH 1.7 µm column was used, with a general gradient of
1% to 90% of mobile phase B over a total running time of 2 min. Mobile phase A consisted of
5% acetonitrile and 0.1% formic acid in purified water, and mobile phase B of 0.1% formic acid
in 100% acetonitrile. The flow rate was set to 0.5 ml/min and 5 µL of the sample was injected.

[2] = system: Eco MG1655 ∆tolC (EN243); experiment: MIC, efflux-defective parental strain EN243; format: cell-based, E. coli; conditions: Escherichia coli, MG1655, read-out: MIC EN243
Protocol: (§1) Minimum inhibitory concentration (MIC) values were determined according to the Clinical Laboratory Standards Institute guidelines. Frequency of resistance was determined by plating ~5 × 10^8 bacterial cells on agar-solidified media plates containing test compound at concentrations corresponding to four times the measured solid-media MIC of the strains. Colonies were counted after 24 h, restreaked onto media containing the same concentration of compound, and the MIC remeasured against the assayed compound. Genomic DNA from isolated clones was sequenced by paired-end sequencing on an Illumina MiSeq device. Complete experimental details available in SI Appendix. […]
Minimum inhibitory concentration (MIC) determination. Broth microdilution and agar dilution
MIC assays were conducted according to CLSI guidelines (M07-2012). Appropriate inoculation
suspension density was assessed using a Sensititre Nephelometer with a Sensititre 0.5
(§2) McFarland Standard. […]

[3] = system: lpxH mutants of EN243 (Eco MG1655 ∆tolC); experiment: MIC, lpxH mutants with reduced susceptibility in efflux-defective E. coli background; format: cell-based; conditions: Escherichia coli
Protocol: as §1
Minimum inhibitory concentration (MIC) determination. Broth microdilution and agar dilution MIC assays were conducted according to CLSI guidelines (M07-2012). Appropriate inoculation suspension density was assessed using a Sensititre Nephelometer with a Sensititre 0.5 […]
as §2
Frequency of Resistance. Frequency of resistance was assessed by spread plating between […] cfu of a freshly-grown culture of the strain of interest on plates containing a concentration of compound corresponding to 4 times the MIC of the strain (as determined by agar-dilution MIC). Serial dilutions of the same cultures were plated on non-selective media to determine the number of cells plated. The frequency of resistance was determined by dividing the number of colonies obtained on the selective plates after 24 hours of growth by the calculated total population plated. Typically 4 independently grown cultures were used to initiate 4 separate experiments, and the total combined number of obtained colonies and plated populations were used for calculations. Isolated colonies from selection plates were re-streaked on an additional plate containing the same concentration of compound used in the original selection. Clones were saved at -80 °C for subsequent analysis.
Whole-genome sequencing and data analysis. Genomic DNA of selected clones was prepared using an Epicentre MasterPure Complete DNA Purification Kit. Whole-genome sequencing libraries were prepared using an Illumina Nextera XT Library Preparation Kit. The libraries were sequenced using an Illumina MiSeq device with a V3 600-cycle reagent kit. Whole-genome sequencing data was analyzed using CLC Genomics Workbench Version 11. […]

SMILES	solubility thermodynamic at 24 h [1] [µM]	MIC [2] [µg/mL]	MIC ([3]; MG1655, read-out: MIC CH6045) [µg/mL]	MIC ([3]; MG1655, read-out: MIC CH6047) [µg/mL]	MIC ([3]; MG1655, read-out: MIC CH6048) [µg/mL]	MIC ([3]; MG1655, read-out: MIC CH6051) [µg/mL]	MIC ([3]; MG1655, read-out: MIC CH7010) [µg/mL]	MIC ([3]; MG1655, read-out: MIC CH7011) [µg/mL]	MIC ([3]; MG1655, read-out: MIC CH7012) [µg/mL]	MIC ([3]; MG1655, read-out: MIC CH7013) [µg/mL]	MIC ([3]; MG1655, read-out: MIC CH7015) [µg/mL]	MIC ([3]; MG1655, read-out: MIC CH7016) [µg/mL]	MIC ([3]; MG1655, read-out: MIC CH8845) [µg/mL]	MIC ([3]; MG1655, read-out: MIC CH8846) [µg/mL]	MIC ([3]; MG1655, read-out: MIC CH8847) [µg/mL]	MIC ([3]; MG1655, read-out: MIC CH8848) [µg/mL]	MIC ([3]; MG1655, read-out: MIC CH8850) [µg/mL]	MIC ([3]; MG1655, read-out: MIC CH8851) [µg/mL]	MIC ([3]; MG1655, read-out: MIC CH8853) [µg/mL]	MIC ([3]; MG1655, read-out: MIC CH8854) [µg/mL]	other results
CN(c1ccc(CNCCN)cc1C(=O)Nc1ccc(S(=O)(=O)N2CCN(c3cc(Cl)cc(Cl)c3)CC2)cc1)S(C)(=O)=O [EBL-3025]	4 (≈ 2.68 µg/mL)	–	–	–	–	–	–	–	–	–	–	–	–	–	–	–	–	–	–	–	–
CC(=O)N1CCc2cc(S(=O)(=O)N3CCN(c4cccc(C(F)(F)F)c4)CC3)ccc21 [AZ1, reference compound]	–	0.125 (≈ 0.276 µM)	2 (≈ 4.41 µM)	> 64	0.5 (≈ 1.1 µM)	> 64	2 (≈ 4.41 µM)	2 (≈ 4.41 µM)	4 (≈ 8.82 µM)	64 (≈ 141 µM)	> 64	2 (≈ 4.41 µM)	2 (≈ 4.41 µM)	2 (≈ 4.41 µM)	> 64	4 (≈ 8.82 µM)	2 (≈ 4.41 µM)	1 (≈ 2.21 µM)	2 (≈ 4.41 µM)	2 (≈ 4.41 µM)	MIC ([3]; MG1655, read-out: MIC CH8855): > 64 µg/mL; MIC ([3]; MG1655, read-out: MIC CH8856): > 64 µg/mL; MIC ([3]; MG1655, read-out: MIC CH8868): > 64 µg/mL; MIC ([3]; MG1655, read-out: MIC CH8869): 0.125 µg/mL (≈ 0.276 µM); MIC ([3]; MG1655, read-out: MIC CH8870): > 64 µg/mL; MIC ([3]; MG1655, read-out: MIC CH8871): > 64 µg/mL
CN(c1ccccc1C(=O)Nc1ccc(S(=O)(=O)N2CCCCC2)cc1)S(C)(=O)=O [JEDI-852]	–	4 (≈ 8.86 µM)	64 (≈ 142 µM)	> 64	32 (≈ 70.9 µM)	> 64	2 (≈ 4.43 µM)	16 (≈ 35.4 µM)	16 (≈ 35.4 µM)	> 64	32 (≈ 70.9 µM)	16 (≈ 35.4 µM)	32 (≈ 70.9 µM)	32 (≈ 70.9 µM)	> 64	> 64	> 64	8 (≈ 17.7 µM)	> 64	> 64	MIC ([3]; MG1655, read-out: MIC CH8855): > 64 µg/mL; MIC ([3]; MG1655, read-out: MIC CH8856): > 64 µg/mL; MIC ([3]; MG1655, read-out: MIC CH8868): > 64 µg/mL; MIC ([3]; MG1655, read-out: MIC CH8869): 4 µg/mL (≈ 8.86 µM); MIC ([3]; MG1655, read-out: MIC CH8870): 32 µg/mL (≈ 70.9 µM); MIC ([3]; MG1655, read-out: MIC CH8871): > 64 µg/mL
Cc1cc(C#N)nc(N2CCN(S(=O)(=O)c3ccc(NC(=O)c4cc(CN5CC(CN)C5)ccc4N(C)S(C)(=O)=O)cc3)CC2)n1 [EBL-3647]	1090 (≈ 728 µg/mL)	–	–	–	–	–	–	–	–	–	–	–	–	–	–	–	–	–	–	–	–
Cc1cc(C#N)nc(N2CCN(S(=O)(=O)c3ccc(NC(=O)c4cc(CNCCCN)ccc4N(C)S(C)(=O)=O)cc3)CC2)n1.Cl.Cl [EBL-3599]	1530	–	–	–	–	–	–	–	–	–	–	–	–	–	–	–	–	–	–	–	–
Cc1cc(C#N)nc(N2CCN(S(=O)(=O)c3ccc(NC(=O)c4ccccc4N(C)S(C)(=O)=O)cc3)CC2)n1 [EBL-3339]	1.2 (≈ 0.684 µg/mL)	–	–	–	–	–	–	–	–	–	–	–	–	–	–	–	–	–	–	–	–
CN(c1ccccc1C(=O)Nc1ccc(S(=O)(=O)N2CCN(c3cccc(C(F)(F)F)c3)CC2)cc1)S(C)(=O)=O [JEDI-1444]	0.21 (≈ 0.125 µg/mL)	0.016 (≈ 0.0268 µM)	0.25 (≈ 0.419 µM)	1 (≈ 1.68 µM)	0.064 (≈ 0.107 µM)	> 2	0.064 (≈ 0.107 µM)	0.25 (≈ 0.419 µM)	0.064 (≈ 0.107 µM)	0.125 (≈ 0.21 µM)	0.064 (≈ 0.107 µM)	0.125 (≈ 0.21 µM)	1 (≈ 1.68 µM)	0.25 (≈ 0.419 µM)	> 2	0.5 (≈ 0.838 µM)	0.5 (≈ 0.838 µM)	0.25 (≈ 0.419 µM)	0.25 (≈ 0.419 µM)	0.25 (≈ 0.419 µM)	MIC ([3]; MG1655, read-out: MIC CH8855): > 2 µg/mL; MIC ([3]; MG1655, read-out: MIC CH8856): > 2 µg/mL; MIC ([3]; MG1655, read-out: MIC CH8868): 2 µg/mL (≈ 3.35 µM); MIC ([3]; MG1655, read-out: MIC CH8869): 0.064 µg/mL (≈ 0.107 µM); MIC ([3]; MG1655, read-out: MIC CH8870): 0.25 µg/mL (≈ 0.419 µM); MIC ([3]; MG1655, read-out: MIC CH8871): 2 µg/mL (≈ 3.35 µM)
